This assay deals with T1, LXRβ (Homo sapiens, UniProt P55055).
T1 construct: Co-transfection expression plasmids, comprising full-length LXRα (pCMX-h LXRα[…] or LXRβ (pCMX-hLXRβ)); expressed in transfected cells; host or cells: CV-1 African Green Monkey Kidney Cells
T1 sequence (P55055 1-460): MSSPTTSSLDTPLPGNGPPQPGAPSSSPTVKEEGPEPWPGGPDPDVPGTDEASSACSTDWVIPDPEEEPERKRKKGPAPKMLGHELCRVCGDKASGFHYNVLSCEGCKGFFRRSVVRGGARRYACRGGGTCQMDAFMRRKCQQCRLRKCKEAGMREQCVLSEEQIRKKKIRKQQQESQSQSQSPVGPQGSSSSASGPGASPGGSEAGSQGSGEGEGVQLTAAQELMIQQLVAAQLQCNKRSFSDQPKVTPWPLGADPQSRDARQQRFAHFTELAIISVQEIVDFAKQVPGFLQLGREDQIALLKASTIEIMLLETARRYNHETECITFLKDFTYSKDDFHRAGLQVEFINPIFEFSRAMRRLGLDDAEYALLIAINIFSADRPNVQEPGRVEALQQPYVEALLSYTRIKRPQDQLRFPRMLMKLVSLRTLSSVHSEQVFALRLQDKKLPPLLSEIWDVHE
T1 sequence (P19793 1-462 partner): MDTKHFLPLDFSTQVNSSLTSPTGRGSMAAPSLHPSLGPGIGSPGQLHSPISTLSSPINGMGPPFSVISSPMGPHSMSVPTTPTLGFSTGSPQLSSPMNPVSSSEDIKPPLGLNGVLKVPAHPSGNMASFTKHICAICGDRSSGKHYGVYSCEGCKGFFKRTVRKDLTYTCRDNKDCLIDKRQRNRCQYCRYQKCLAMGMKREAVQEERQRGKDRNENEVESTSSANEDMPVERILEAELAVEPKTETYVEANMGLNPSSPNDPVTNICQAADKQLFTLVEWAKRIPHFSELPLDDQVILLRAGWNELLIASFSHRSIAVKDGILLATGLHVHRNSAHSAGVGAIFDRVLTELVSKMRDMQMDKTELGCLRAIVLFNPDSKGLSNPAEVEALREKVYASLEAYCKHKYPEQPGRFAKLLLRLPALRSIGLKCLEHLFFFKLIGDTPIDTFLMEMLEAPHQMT
Description: Co-transfection assay (LXRE luciferase reporter), LXRβ. Conditions: for EC50: CV-1 cells transfected with pCMX-hLXRβ and LXREx1-Tk-Luciferase, 20 hours incubation; for Emax: LXRβ co-transfection, relative to high control 1-(2,4-difluorobenzyl)-2-oxo-6-(4-phenoxyphenyl)-4-(trifluoromethyl)-1,2-dihydropyridine-3-carbonitrile, read-out: % Efficacy. Format: cell-based. The method in brief: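 CV-1 cells transiently co-transfected with full-length human LXRβ (or LXRα), LXREx1-Tk-luciferase reporter and β-galactosidase control; compound added (10 μM final in single-point, 11-point ½-log curves, ≤0.5% DMSO) for 20 h at 37 °C. Luciferase read; EC50 from four-parameter fit, efficacy relative to reference agonist high control.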

The structures appear in SMILES notation.

This note sets out measurements from patent US9834542B2, “LXR modulators” (BRISTOL-MYERS SQUIBB COMPANY, priority 2013, dated 2017).

As a reminder, the EC50 is the concentration at which the effect is half-maximal. For `Cc1nc(C(F)(F)F)cn1-c1ccc(-c2cccc(S(C)(=O)=O)c2)cc1-c1nc(C(F)(F)F)cn1-c1ccc2c(c1)OC(F)(F)O2` [Example 640, 1-(2,2-difluorobenzo[d][1,3]dioxol-5-yl)-2-(4-(2-methyl-4-(trifluoromethyl)-1H-imidazol-1-yl)-3′-(methylsulfonyl)biphenyl-3-yl)-4-(trifluoromethyl)-1H-imidazole], the EC50 stood at 218 nM and the Emax came out at 61%.

On to `Cc1nc(C(F)(F)F)cn1-c1ccc(-c2cc(F)cc(S(C)(=O)=O)c2)cc1-c1nc(C(F)(F)F)cn1-c1ccc2c(c1)OC(F)(F)O2` [Example 641, 1-(2,2-difluorobenzo[d][1,3]dioxol-5-yl)-2-(3′-fluoro-4-(2-methyl-4-(trifluoromethyl)-1H-imidazol-1-yl)-5′-(methylsulfonyl)biphenyl-3-yl)-4-(trifluoromethyl)-1H-imidazole], for which a half-maximal response (EC50) required 721 nM and the Emax stood at 59%.

On to `Cc1nc(C(F)(F)F)cn1-c1ccc(-c2cccc(S(C)(=O)=O)c2)cc1-c1nc(C(F)(F)F)cn1-c1ccc(Cl)nc1` [Example 642, 2-chloro-5-(2-(4-(2-methyl-4-(trifluoromethyl)-1H-imidazol-1-yl)-3′-(methylsulfonyl)biphenyl-3-yl)-4-(trifluoromethyl)-1H-imidazol-1-yl)pyridine], for which the EC50 is 1150 nM and the Emax was determined as 32%.

Regarding `Cc1nc(C(F)(F)F)cn1-c1ccc(-c2cccc(S(C)(=O)=O)c2)cc1-c1nc(C2CC2)cn1-c1ccc2c(c1)OC(F)(F)O2` [Example 643, 4-cyclopropyl-1-(2,2-difluorobenzo[d][1,3]dioxol-5-yl)-2-(4-(2-methyl-4-(trifluoromethyl)-1H-imidazol-1-yl)-3′-(methylsulfonyl)biphenyl-3-yl)-1H-imidazole], the EC50 turned out to be 341 nM and the Emax is 84%.

As for `Cc1nc(C(F)(F)F)cn1-c1ccc(-c2cccc(S(C)(=O)=O)c2)cc1-c1nc(C(F)(F)F)cn1-c1ccc(Cl)cc1` [Example 644, 1-(4-chlorophenyl)-2-(4-(2-methyl-4-(trifluoromethyl)-1H-imidazol-1-yl)-3′-(methylsulfonyl)biphenyl-3-yl)-4-(trifluoromethyl)-1H-imidazole], the EC50 worked out at 408 nM and the Emax is 37%.

`Cc1nc(C(F)(F)F)cn1-c1ccc(-c2cc(F)c(CO)c(S(C)(=O)=O)c2)cc1-c1nc(C(F)(F)F)cn1-c1ccc(Cl)cc1` [Example 645, (3′-(1-(4-chlorophenyl)-4-(trifluotomethyl)-1H-imidazol-2-yl)-3-fluoro-4′-(2-methyl-4-(trifluoromethyl)-1H-imidazol-1-yl)-5-(methylsulfonyl)biphenyl-4-yl)methanol]: it took 144 nM to reach a half-maximal effect (EC50) and the Emax was found to be 32%.

`Cc1nc(C(F)(F)F)cn1-c1ccc(-c2cccc(S(C)(=O)=O)c2)cc1-c1nc(C2CC2)cn1-c1ccc(Cl)cc1` [Example 646, 1-(4-chlorophenyl)-4-cyclopropyl-2-(4-(2-methyl-4-(trifluoromethyl)-1H-imidazol-1-yl)-3′-(methylsulfonyl)-[1,1′-biphenyl]-3-yl)-1H-imidazole]: it took 572 nM to reach a half-maximal effect (EC50) and the Emax came to 44%.

With `Cc1nc(C(F)(F)F)cn1-c1ccc(-c2cc(F)c(CO)c(S(C)(=O)=O)c2)cc1-c1nc(C2CC2)cn1-c1ccc(Cl)cc1` [Example 647, (3′-(1-(4-chlorophenyl)-4-cyclopropyl-1H-imidazol-2-yl)-3-fluoro-4′-(2-methyl-4-(trifluoromethyl)-1H-imidazol-1-yl)-5-(methylsulfonyl)-[1,1′-biphenyl]-4-yl)methanol], the concentration for a half-maximal effect (EC50) stood at 350 nM and the Emax is 49%.
